Experimental data from patent US11203772B2, “Chemoenzymatic synthesis of structurally homogeneous ultra-low molecular weight heparins” (The University of North Carolina at Chapel Hill, priority 2010, dated 2021).

Legend:
bovine factor Xa = test: Inhibition of factor Xa activity (anti-Xa, chromogenic substrate S-2765, with AT); format: biochemical; details: with human AT, read-out: IC50 value, in vitro anti-Xa activity
Method: Inhibition effect of the ULMW heparin compounds on the activity of factor Xa. Assays were based on a previously published method (Zhang et al., 2001; Duncan et al., 2004). Briefly, bovine factor Xa (Sigma, St. Louis, Mo., United States of America) was diluted to 5 U/ml with PBS containing 1 mg/ml BSA. Human AT (Cutter Biological) was diluted with PBS containing 1 mg/ml BSA to give a stock solution at the concentration of 27 μM. The chromogenic substrates, S-2765 was from Diapharma and made up at 1 mM in water. The oligosaccharide (ARIXTRA® synthetic ULMW heparin pentasaccharide, ULMW heparin construct 1 and 2) was dissolved in PBS at various concentrations (0.5 to 50 nM). The reaction mixture, which included 25 μl of AT stock solution and 25 μl of the solution containing the sample, was incubated at 37° C. for 2 min. Factor Xa (25 μl) was added. After incubating 37° C. for 4 min, 25 μl of S-2765 was added. The absorbance of the reaction mixture was measured at 405 nm continuously for 10 min. The absorbance values were plotted against the reaction time. The initial reaction rates as a function of concentration were used to calculate the IC50 values.
The activity of Xa was determined by the rate of the increase of the absorbance at 405 nm. The activity without drugs was defined as 100%. […]

factor Xa [1] = details: rabbit, in vivo, sc, 120 ug/kg
factor Xa [2] = test: Anticoagulant activity in vivo: anti-Xa activity of rabbit plasma samples; details: rabbits, subcutaneous, 120 μg/kg; compared with one another
antithrombin (AT) = molecular target: T1, antithrombin (AT) (Homo sapiens, UniProt P01008); test: Binding to antithrombin (AT) by affinity coelectrophoresis; details: affinity co-electrophoresis, 35S-labeled compound
T1 construct: purchased Cutter Biological
Method: The dissociation constant (Kd) of each sample and AT was determined using affinity co-electrophoresis (Lee & Lander, 1991). Approximately 4000-5000 cpm of antithrombin-binding ^35S-labeled ULMW heparin construct 1 or 2 was loaded per lane with zones of AT at concentrations 0, 4, 8, 16, 32, 60, 120, 240 and 500 nM. The gel was performed at 400 mA for 2 hours, dried and analyzed on a Phospholmager Storm 860 (Amersham Biosciences, Uppsala, Sweden). The retardation coefficient was calculated at R=(M0-M)/M0, where M0 is the mobility of the polysaccharide through the zone without AT, and M is the mobility of the sample through each separation zone. The retardation coefficient was then plotted against the retardation coefficient divided by its respective concentration of AT. The slope of the line represents −1/Kd.

T1 sequence (P01008 33-464): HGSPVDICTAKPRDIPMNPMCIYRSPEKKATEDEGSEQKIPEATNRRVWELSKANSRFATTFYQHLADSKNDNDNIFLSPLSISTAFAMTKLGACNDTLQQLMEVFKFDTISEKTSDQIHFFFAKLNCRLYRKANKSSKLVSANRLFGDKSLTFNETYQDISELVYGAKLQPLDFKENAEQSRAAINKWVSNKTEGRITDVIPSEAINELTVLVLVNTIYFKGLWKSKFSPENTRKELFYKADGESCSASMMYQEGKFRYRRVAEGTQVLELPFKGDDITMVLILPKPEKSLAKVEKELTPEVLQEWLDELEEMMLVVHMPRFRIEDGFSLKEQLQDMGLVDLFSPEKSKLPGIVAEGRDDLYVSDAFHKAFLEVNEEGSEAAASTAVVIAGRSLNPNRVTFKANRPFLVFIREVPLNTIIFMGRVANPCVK

CO[C@H]1O[C@H](COS(=O)(=O)O)[C@@H](O[C@@H]2O[C@@H](C(=O)O)[C@@H](O[C@H]3O[C@H](COS(=O)(=O)O)[C@@H](O[C@@H]4O[C@H](C(=O)O)[C@@H](O[C@H]5O[C@H](COS(=O)(=O)O)[C@@H](O)[C@H](O)[C@H]5NS(=O)(=O)O)[C@H](O)[C@H]4O)[C@H](OS(=O)(=O)O)[C@H]3NS(=O)(=O)O)[C@H](O)[C@H]2OS(=O)(=O)O)[C@H](O)[C@H]1NS(=O)(=O)O [ARIXTRA®, fondaparinux sodium, reference compound] was tested, and the IC50 (bovine factor Xa) was 3 nM, the “area under the curve (AUC), anti-Xa activity of plasma samples” value (factor Xa [1]) was 457 and the “pharmacodynamic (PD) profiles” value (factor Xa [2]) was “very similar”.

For O=C(O)C1OC(OC2C(COS(=O)(=O)O)OC(OC3C(C(=O)O)OC(OC4C(COS(=O)(=O)O)OC(OC5C(C(=O)O)OC(OC6C(CO)OC(CO)C6O)C(O)C5O)C(NS(=O)(=O)O)C4O)C(OS(=O)(=O)O)C3O)C(NS(=O)(=O)O)C2OS(=O)(=O)O)C(O)C(O)C1OC1OC(COS(=O)(=O)O)C(O)C(O)C1NS(=O)(=O)O (stereo not shown) [construct 2], the IC50 (bovine factor Xa) was 3.6 nM, the Kd (antithrombin (AT)) was 9.1 ± 0.2 nM and the “area under the curve (AUC), anti-Xa activity of plasma samples” value (factor Xa [1]) was 802. The “pharmacodynamic (PD) profiles” value (factor Xa [2]) was “very similar”.
